In patent US7186861B2 (priority 2002, dated 2007) one finds infection data, which are given here for two compounds.

For this test, the system named is Plasmopara viticola. The experiment in a line: Activity against downy mildew of grapes caused by Plasmopara viticola (lasting effect, inoculation 7 days after spraying). The test is classed as in vivo. To be noted: 63 ppm active compound; potted vines Müller-Thurgau; inoculated 7 days after spraying; untreated plants 90% infected. As for the experimental part: The active compounds were prepared, separately or together, as a 10% emulsion in a mixture of 70% by weight of cyclohexanone, 20% by weight of Nekanil® LN (Lutensol® AP6, wetting agent with an emulsifying and dispersing action based on ethoxylated alkylphenols) and 10% by weight of Wettol® EM (nonionic emulsifier based on ethoxylated castor oil) and were appropriately diluted with water to the desired concentration.
Leaves of potted vines of the variety “Müller-Thurgau” were sprayed to runoff point with an aqueous preparation of active compound prepared from a stock solution consisting of 10% of active compound, 85% of cyclohexanone and 5% of emulsifier. In order to be able to assess the lasting effects of the substances, the plants, after the spray coating had dried on, were placed in a greenhouse for 7 days. Only then were the leaves inoculated with an aqueous suspension of zoospores of Plasmopara viticola. The vines were then initially placed in a chamber saturated with water vapor at 24° C. for 48 hours and subsequently in a greenhouse at temperatures of between 20 and 30° C. for 5 days. After this period of time, the plants were once more placed in a humid chamber for 16 hours to accelerate the eruption of sporangiphores. The extent to which the infection had developed on the undersides of the leaves was then determined visually.

For the compound `CCC=C(C(=O)NCCc1ccc(OCC)c(OC)c1)c1ccc(Cl)c(Cl)c1` [Compound I-44], the infection came out at 3%. In turn, `CC/C=C(/C(=O)NCCc1ccc(OCC)c(OC)c1)c1ccc(Cl)c(Cl)c1` [compound A] showed an infection of 40%.
